In brackets after ≈: the same amount, converted by molar mass. Like-named read-outs stand apart in the source and are kept apart here.
How the values were obtained:
[1] = tested on: HL-60; test: Antiproliferative MTT assay, HL-60; format: cell-based, human; details: for IC50: Homo sapiens, read-out: IC50 HL-60; for SI HL-60: SI = IC50 BALB/3T3 / IC50 HL-60
Procedure, shortened: (§1)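 Leukemia cells seeded at 10^4 per well and exposed 24 h later to four concentrations (100–0.1 µg/mL) for 72 h; HL-60/vinc cultured with doxorubicin. MTT added 4 h, formazan lysed 24 h, absorbance 570 nm; IC50 from triplicates, ≥3 independent experiments.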

[2] = tested on: HL-60/vinc; test: Antiproliferative MTT assay, HL-60/vinc; format: cell-based, human; details: for IC50: Homo sapiens, HL60/vinc, 72 h, read-out: IC50 HL-60/vinc; for IR HL-60/vinc: IR = IC50 HL-60/vinc / IC50 HL-60; for SI HL-60/vinc: SI = IC50 BALB/3T3 / IC50 HL-60/vinc
Procedure, shortened: as §1

[3] = tested on: LoVo; test: Antiproliferative SRB assay, LoVo; format: cell-based, human; details: for IC50: Homo sapiens, LoVo, 72 h, read-out: IC50 LoVo; for SI LoVo: SI = IC50 BALB/3T3 / IC50 LoVo
[4] = tested on: MRSA 586/12; test: MIC microdilution, hospital MRSA; format: cell-based; details: Staphylococcus aureus
[5] = tested on: M. tuberculosis standard H37Rv strain; test: Tuberculostatic activity, test-tube dilution; format: cell-based; details: Mycobacterium tuberculosis, read-out: MIC M. tuberculosis Standard H37Rv Strain
[6] = tested on: MRSA; test: MIC microdilution, MRSA strains overall (range given); format: cell-based, Staphylococcus aureus; details: hospital MRSA strains
[7] = tested on: standard strains of Gram-positive bacteria; test: MIC microdilution, standard Gram-positive strains overall (range given); format: cell-based; details: standard S. aureus and S. epidermidis strains
[8] = tested on: MRSA and MRSE; test: MIC microdilution, MRSA and MRSE overall (range given); format: cell-based; details: hospital MRSA and MRSE strains
[9] = tested on: HL-60, HL-60/vinc, LoVo, LoVo/dx; test: Antiproliferative assays, all four cancer cell lines (range given); format: cell-based; details: Homo sapiens, read-out: IC50 (range over the cancer cell lines)
From the text: Four human cancer cell lines and one normal cell line were used to evaluate anticancer activity of SAL and its N-benzyl amides: human acute promyelocytic leukemia (HL-60) and its vincristine resistant subline (HL-60/vinc), human colon adenocarcinoma cell lines sensitive (LoVo) and resistant to doxorubicin (LoVo/dx) as well as also normal murine embryonic fibroblast cell line (BALB/3T3). The BALB/3T3 cell line was purchased from the American Type Culture Collection (ATCC Rockville, MD, USA), HL-60 cell line from European Type Culture Collection by courtesy of Professor Spik and Dr Mazurier (Laboratory of Biological Chemistry USTL, Lille, France) and HL-60/vinc, LoVo and LoVo/dx by courtesy of Prof. E. Borowski (Technical University of Gdańsk, Gdańsk, Poland). All the cell lines are maintained in the Institute of Immunology and Experimental Therapy (IIET), Wrocław, Poland.
Human leukemia cells were cultured in ISCOVE medium (IIET, Wroclaw, Polond) containing 10% fetal bovine serum and 2 mM L-glutamine (Sigma Aldrich) and 1 µg/100 mL […] for HL-60/vinc (Sigma Aldrich). Human colon adenocarcinoma cell lines were cultured in mixture of OptiMEM and RPMI 1640 (1:1) medium (IIET) supplemented with 5% fetal bovine serum (Thermo Fisher Scientific, Waltham, MA, USA), 2 mM L-glutamine, 1 mM sodium pyruvate (Sigma Aldrich) and 10 µg/100 mL doxorubicin for LoVo/dx (Sigma Aldrich). Murine embryonic fibroblast cells were cultured in Dulbecco medium (Gibco, Darmstadt, Germany) supplemented with 10% fetal bovine serum (Thermo Fisher Scientific) and 2 mM L-glutamine (Sigma Aldrich). All culture media contained antibiotics: 100 U/mL penicillin (Sigma Aldrich) and 100 µg/mL streptomycin (Polfa-Tarchomin, City, Poland). All cell lines were cultured during entire experiment in humid atmosphere at 37 °C and 5% CO2.
Twenty four hours before adding the tested compounds all cell lines were seeded in 96-well plates (Sarstedt, Nümbrecht, Germany) in appropriate media with 10^4 cells per well. All cell lines were exposed to each tested agent at four different concentrations from the range 100 to 0.1 µg/mL for 72 h. The cells were also exposed to the reference drugs: cisplatin (Accord, London, UK) and doxorubicin hydrochloride (Fluka, St. Louis, MO, USA). Additionally, all cell lines were exposed to DMSO (the solvent used for tested compounds, Sigma Aldrich) at the concentrations corresponding to those in the tested agent dilutions. For adherent cells sulphorodamine B assay was performed and MTT assay for leukemia cells.
After 72 h of incubation with tested compounds the cells were fixed in situ by gently adding of 50 µL per well of cold 50% trichloroacetic acid TCA (Avantor Performance Materials, City, Poland) and were incubated at 4 °C for 1 h. Then the wells were washed four times with water and air-dried. Next, 50 µL of 0.2% solution of sulphorodamine B (Sigma Aldrich) in 1% acetic acid (Avantor Performance Materials) were added to each well and plates were incubated at room temperature for 0.5 h. After incubation time, unbound dye was removed by washing plates four times with 1% acetic acid, whereas the stain bound to cells was solubilized with 150 µL of 10 mM Tris base (Sigma Aldrich). Absorbance of each solution was read at Synergy H4 photometer (BioTek Instruments, Winooski, VT, USA) at 540 nm wavelength.
Proliferation inhibition of leukemia cells by tested compounds was measured by means of MTT assay. […]

[10] = tested on: breast cancer stem cells (CSCs); parameters: method as in PMID 19682730; details: versus Taxol; cited from earlier work
[11] = hospital MRSA strain 586/12, read-out: MIC

## CC[C@H](C(=O)NCc1ccc(F)cc1)C1CC[C@H](C)C([C@@H](C)[C@H](O)[C@H](C)C(=O)[C@H](CC)C2O[C@]3(C=C[C@@H](O)C4(CC[C@@](C)(C5CC[C@](O)(CC)[C@H](C)O5)O4)O3)[C@H](C)C[C@@H]2C)O1 (some centres unmarked) [F-p]
[1]; HL-60, 72 h, MTT, mean ± SD, NA: not active in concentrations used (up to 100 µg/mL)
  IC50: 3600 ± 690 nM
[1]
  SI HL-60: 2.40
[2]
  IC50: 11800 ± 2560 nM
  IR HL-60/vinc: 3.28
  SI HL-60/vinc: 0.73
[3]; SRB, mean ± SD
  IC50: 6180 ± 910 nM
[3]
  SI LoVo: 1.40
[4]; [11]
  MIC: 64 µg/mL (≈ 74.6 µM)
[5]
  MIC: 50 µg/mL (≈ 58.3 µM)
[6]
  MIC (range over MRSA strains): 16 to 64 µg/mL
[7]
  MIC (range over standard strains of Gram-positive bacteria): 16 to 32 µg/mL
[8]
  MIC (range over MRSA and MRSE): 16 to 128 µg/mL

## CC[C@H](C(=O)NCc1ccc([N+](=O)[O-])cc1)C1CC[C@H](C)C([C@@H](C)[C@H](O)[C@H](C)C(=O)[C@H](CC)C2O[C@]3(C=C[C@@H](O)C4(CC[C@@](C)(C5CC[C@](O)(CC)[C@H](C)O5)O4)O3)[C@H](C)C[C@@H]2C)O1 (some centres unmarked) [NO2-p]
[3]; SRB, mean ± SD
  IC50: 13300 ± 1940 nM
[3]
  SI LoVo: 0.52
[4]; [11]
  MIC: 256 µg/mL (≈ 289 µM)
[5]
  MIC: 50 µg/mL (≈ 56.5 µM)
[7]
  MIC (range over standard strains of Gram-positive bacteria): 128 µg/mL
[8]
  MIC (range over MRSA and MRSE): 128 to 256 µg/mL

## CC[C@@H](C(=O)[C@@H](C)[C@@H](O)[C@H](C)[C@@H]1O[C@@H]([C@@H](CC)C(=O)O)CC[C@@H]1C)[C@H]1O[C@]2(C=C[C@@H](O)[C@]3(CC[C@@](C)([C@H]4CC[C@](O)(CC)[C@H](C)O4)O3)O2)[C@H](C)C[C@@H]1C [SAL, Salinomycin]
[1]; HL-60, 72 h
  IC50: 330 ± 120 nM
[1]
  SI HL-60: 39.45
[2]
  IC50: 2330 ± 120 nM
  IR HL-60/vinc: 7.06
  SI HL-60/vinc: 5.59
[3]
  IC50: 470 ± 80 nM
  SI LoVo: 27.70
[4]; MRSA
  MIC: 16 µg/mL (≈ 21.3 µM)
[5]
  MIC: 25 µg/mL (≈ 33.3 µM)
[9]
  IC50: 330 to 2330 nM
[10]
  fold more effective than Taxol: ~100 fold

Reference: paper PMC6271077, “Synthesis, Anticancer and Antibacterial Activity of Salinomycin N-Benzyl Amides” (Molecules, 2014)
